Results taken from patent US12239627B2, “Method of treating conditions related to the PGI2 receptor” (Arena Pharmaceuticals, Inc., priority 2014, dated 2025).

Assay: Phase 1 single ascending dose study with healthy subjects (adverse events)
Assay type: in vivo, human
Conditions: for No. of subjects reporting AEs / No. of subjects with AE Abdominal pain / No. of subjects with AE Cough / No. of subjects with AE Diarrhoea / No. of subjects with AE Dizziness / No. of subjects with AE Flushing / No. of subjects with AE Headache / No. of subjects with AE Jaw pain / No. of subjects with AE Muscle spasm / No. of subjects with AE Nausea / No. of subjects with AE Neck pain / No. of subjects with AE Oropharyngeal pain / No. of subjects with AE Pain in extremity / No. of subjects with AE Photophobia / No. of subjects with AE Vomiting / Number of Subjects Reporting AEs By Most Direct Relationship to Study Treatment: Definitely not related / Number of Subjects Reporting AEs By Most Direct Relationship to Study Treatment: Possibly related / Number of Subjects Reporting AEs By Most Direct Relationship to Study Treatment: Probably not related / Number of Subjects Reporting AEs By Most Direct Relationship to Study Treatment: Probably related: 6 subjects
Experimental: This study was a phase 1, randomized, double-blind, placebo-controlled study of four cohorts of 8 subjects each (2 subjects were assigned to receive placebo, and 6 to receive Compound 1). Each cohort was assigned to receive a single dose level of blinded study medication in an ascending dose fashion; dosing began at 0.1 mg.
All enrolled subjects received a single oral dose of study medication (Compound 1 or placebo). Dose escalation was slowed or discontinued when predefined safety criteria based on peak plasma exposure levels, blood pressure changes, or adverse events (AEs) were met. […] Two lower dose cohorts were added, in which the doses of Compound 1were 0.05 mg and 0.03 respectively.
After each cohort was dosed, the following safety parameters were monitored: vital signs, clinical laboratory tests to include serum chemistry, hematology, and urinalysis, 12-lead ECG, plasma Compound 1 concentration, and AEs. Pharmacokinetic parameters were monitored and calculated for Compound 1.

In the case of `O=C(O)COC[C@H]1CC[C@H](COC(=O)N(c2ccccc2)c2ccc(Cl)cc2)CC1` [Compound 1, 2-(((1r,4r)-4-(((4-chlorophenyl)(phenyl)carbamoyloxy)methyl)cyclohexyl)methoxy)acetic acid], the “AEs on which dose escalation was discontinued” value (2nd cohort, single oral dose 0.2 mg) is reported as “prolonged nausea and vomiting that was severe in intensity”, the “Tolerability of the dose” value (single dose 0.1 mg, some subjects experienced nausea, vomiting, headache, and jaw pain) is reported as “tolerated” and the “Tolerability of the dose” value (single dose 0.2 mg) is reported as “Intolerable AEs”. For the same compound, the “No. of subjects reporting AEs” value (single oral dose 0.03 mg) was 2 subjects, the “No. of subjects with AE Abdominal pain” value (single oral dose 0.03 mg) was 0 subjects and the “No. of subjects with AE Cough” value (single oral dose 0.03 mg) was 0 subjects. The “No. of subjects with AE Diarrhoea” value (single oral dose 0.03 mg) was 0 subjects, the “No. of subjects with AE Dizziness” value (single oral dose 0.03 mg) was 0 subjects and the “No. of subjects with AE Flushing” value (single oral dose 0.03 mg) was 0 subjects. The “No. of subjects with AE Headache” value (single oral dose 0.03 mg) was 2 subjects, the “No. of subjects with AE Jaw pain” value (single oral dose 0.03 mg) was 0 subjects and the “No. of subjects with AE Muscle spasm” value (single oral dose 0.03 mg) was 0 subjects. For the same compound, the “No. of subjects with AE Nausea” value (single oral dose 0.03 mg) was 0 subjects, the “No. of subjects with AE Neck pain” value (single oral dose 0.03 mg) was 0 subjects and the “No. of subjects with AE Oropharyngeal pain” value (single oral dose 0.03 mg) was 0 subjects. The “No. of subjects with AE Pain in extremity” value (“No. of subjects with AE Pain” for short) (single oral dose 0.03 mg) was 0 subjects, the “No. of subjects with AE Photophobia” value (single oral dose 0.03 mg) was 0 subjects and the “No. of subjects with AE Vomiting” value (single oral dose 0.03 mg) was 0 subjects. The “Number of Subjects Reporting AEs By Most Direct Relationship to Study Treatment: Definitely not related” value (“Number … Definitely not related” for short) (single oral dose 0.03 mg) was 0 subjects, the “Number of Subjects Reporting AEs By Most Direct Relationship to Study Treatment: Possibly related” value (shortened to “Number … Possibly related”) (single oral dose 0.03 mg) was 2 subjects and the “Number of Subjects Reporting AEs By Most Direct Relationship to Study Treatment: Probably not related” value (from here on “Number … Probably not related”) (single oral dose 0.03 mg) was 0 subjects. The “Number of Subjects Reporting AEs By Most Direct Relationship to Study Treatment: Probably related” value (“Number … Probably related” for short) (single oral dose 0.03 mg) was 0 subjects, the “No. of subjects reporting AEs” value (single oral dose 0.05 mg) was 5 subjects and the “No. of subjects with AE Abdominal pain” value (single oral dose 0.05 mg) was 1 subjects. The “No. of subjects with AE Cough” value (single oral dose 0.05 mg) was 0 subjects, the “No. of subjects with AE Diarrhoea” value (single oral dose 0.05 mg) was 0 subjects and the “No. of subjects with AE Dizziness” value (single oral dose 0.05 mg) was 0 subjects. For the same compound, the “No. of subjects with AE Flushing” value (single oral dose 0.05 mg) was 1 subjects, the “No. of subjects with AE Headache” value (single oral dose 0.05 mg) was 5 subjects and the “No. of subjects with AE Jaw pain” value (single oral dose 0.05 mg) was 2 subjects. For the same compound, the “No. of subjects with AE Muscle spasm” value (single oral dose 0.05 mg) was 0 subjects, the “No. of subjects with AE Nausea” value (single oral dose 0.05 mg) was 1 subjects and the “No. of subjects with AE Neck pain” value (single oral dose 0.05 mg) was 0 subjects. For the same compound, the “No. of subjects with AE Oropharyngeal pain” value (single oral dose 0.05 mg) was 0 subjects, the “No. of subjects with AE Pain” value (single oral dose 0.05 mg) was 0 subjects and the “No. of subjects with AE Photophobia” value (single oral dose 0.05 mg) was 1 subjects. The “No. of subjects with AE Vomiting” value (single oral dose 0.05 mg) was 0 subjects, the “Number … Definitely not related” value (single oral dose 0.05 mg) was 0 subjects and the “Number … Possibly related” value (single oral dose 0.05 mg) was 5 subjects. The “Number … Probably not related” value (single oral dose 0.05 mg) was 0 subjects, the “Number … Probably related” value (single oral dose 0.05 mg) was 0 subjects and the “No. of subjects reporting AEs” value (single oral dose 0.1 mg) was 6 subjects. For the same compound, the “No. of subjects with AE Abdominal pain” value (single oral dose 0.1 mg) was 1 subjects, the “No. of subjects with AE Cough” value (single oral dose 0.1 mg) was 0 subjects and the “No. of subjects with AE Diarrhoea” value (single oral dose 0.1 mg) was 0 subjects. For the same compound, the “No. of subjects with AE Dizziness” value (single oral dose 0.1 mg) was 1 subjects, the “No. of subjects with AE Flushing” value (single oral dose 0.1 mg) was 1 subjects and the “No. of subjects with AE Headache” value (single oral dose 0.1 mg) was 5 subjects. For the same compound, the “No. of subjects with AE Jaw pain” value (single oral dose 0.1 mg) was 3 subjects, the “No. of subjects with AE Muscle spasm” value (single oral dose 0.1 mg) was 0 subjects and the “No. of subjects with AE Nausea” value (single oral dose 0.1 mg) was 2 subjects. The “No. of subjects with AE Neck pain” value (single oral dose 0.1 mg) was 1 subjects, the “No. of subjects with AE Oropharyngeal pain” value (single oral dose 0.1 mg) was 0 subjects and the “No. of subjects with AE Pain” value (single oral dose 0.1 mg) was 0 subjects. For the same compound, the “No. of subjects with AE Photophobia” value (single oral dose 0.1 mg) was 0 subjects, the “No. of subjects with AE Vomiting” value (single oral dose 0.1 mg) was 2 subjects and the “Number … Definitely not related” value (single oral dose 0.1 mg) was 1 subjects. For the same compound, the “Number … Possibly related” value (single oral dose 0.1 mg) was 4 subjects, the “Number … Probably not related” value (single oral dose 0.1 mg) was 0 subjects and the “Number … Probably related” value (single oral dose 0.1 mg) was 1 subjects. For the same compound, the “No. of subjects reporting AEs” value (single oral dose 0.2 mg) was 6 subjects, the “No. of subjects with AE Abdominal pain” value (single oral dose 0.2 mg) was 0 subjects and the “No. of subjects with AE Cough” value (single oral dose 0.2 mg) was 0 subjects. For the same compound, the “No. of subjects with AE Diarrhoea” value (single oral dose 0.2 mg) was 1 subjects, the “No. of subjects with AE Dizziness” value (single oral dose 0.2 mg) was 0 subjects and the “No. of subjects with AE Flushing” value (single oral dose 0.2 mg) was 2 subjects. For the same compound, the “No. of subjects with AE Headache” value (single oral dose 0.2 mg) was 5 subjects, the “No. of subjects with AE Jaw pain” value (single oral dose 0.2 mg) was 1 subjects and the “No. of subjects with AE Muscle spasm” value (single oral dose 0.2 mg) was 1 subjects. For the same compound, the “No. of subjects with AE Nausea” value (single oral dose 0.2 mg) was 3 subjects, the “No. of subjects with AE Neck pain” value (single oral dose 0.2 mg) was 0 subjects and the “No. of subjects with AE Oropharyngeal pain” value (single oral dose 0.2 mg) was 1 subjects. The “No. of subjects with AE Pain” value (single oral dose 0.2 mg) was 1 subjects, the “No. of subjects with AE Photophobia” value (single oral dose 0.2 mg) was 0 subjects and the “No. of subjects with AE Vomiting” value (single oral dose 0.2 mg) was 6 subjects. For the same compound, the “Number … Definitely not related” value (single oral dose 0.2 mg) was 0 subjects, the “Number … Possibly related” value (single oral dose 0.2 mg) was 0 subjects and the “Number … Probably not related” value (single oral dose 0.2 mg) was 0 subjects. For the same compound, the “Number … Probably related” value (single oral dose 0.2 mg) was 6 subjects.
